Data on four compounds can be found in patent US8906860B2, “Methods and compositions inhibiting tumor cell proliferation” (The Board of Trustees of the University of Illinois, priority 2011, dated 2014).

Read-outs that look alike come from different tables or passages of the source. Square brackets hold non-standard residues; d marks the D form. Ends that are not written are not given here.

Experiment [1] has as its system p53 null thymic lymphoma cells. As to the kind of experiment: Kidney colonization of intravenously injected p53 null thymic lymphoma cells in SCID mice. Type of experiment: in vivo, mouse. Conditions: 2.5 mg/kg intraperitoneal every other day, 10 injections. The protocol:
These experiments were performed to determine if modifying the termini conferred any advantages on these peptides when administered to an animal. Both wild type ARF 26-44 (rrrrrrrrrKFVRSRRPRTASCALAFVN) (SEQ ID NO 10) and mutant ARF 37-44 (rrrrrrrrrSCALAFVN) (SEQ ID NO 21) peptides were synthesized by Genemed Synthesis Inc. (San Antonio, Tex.). The N-terminus of each peptide was fused with nine D-Arg(r) residues. Both wild type and mutant peptides were blocked with amidation on C-terminus and acetylation on N-terminus. For sarcoma cells, mice were treated with 5 mg/kg body weight of peptide every other day for 10 times. For lymphoma cells, mice were treated with 2.5 mg/kg body weight of peptide every other day for 10 times.
To test the therapeutic effect of the ARF-peptide on p53 null tumors in vivo, p53 null lymphoma/sarcoma cells were introduced into the circulation of SCID mice through intravenous injection. ICR SCID mice were obtained from Taconic Farms (Germantown, N.Y.). Both p53 null sarcoma and lymphoma cells were stably transduced before injection with lentivirus carrying a gene conferring luciferase expression. Specifically, cells were stably transduced with pFU-L2G luciferase construct obtained from Sanjiv Sam Gambhir (M. D., Ph.D) of Stanford University as optimized by Dr. Huiping Liu (Liu et al., Proc Natl Acad Sci USA, 107: 18115-18120). This construct enabled expression of both the bioluminescence and green fluorescence protein. eGFP positive cells were sorted by Beckman Coulter MoFlo. 3×10^6 cells were suspended in cold PBS and injected through the tail vein of SCID mice. Live animal imaging was performed using an IVIS Spectrum optical imaging machine (Caliper Life Sciences, Alameda, Calif.). […] Mice were randomized into three groups and were treated with PBS, mutant-peptide or the wild type ARF-peptide for 10 injections every other day by intraperitoneal injection. […] The mice were sacrificed and lung sections were analyzed for tumor colonies. […] For the p53 null thymic lymphoma cells, metastatic growth in kidney was observed, consistent with murine thymic lymphoma cells having a tendency to colonize kidney, liver and spleen (Aoudjit et al., 1998, Blood, 91: 623-629).

Another experiment concerns GFP-FoxM1B. The experiment can be described thus: Nuclear localization of transfected GFP-FoxM1B in U2OS cells. Type of experiment: cell-based, human. Particulars: 1 μM. From the text: FIGS. 7A-H show nuclear localization of GFP-FoxM1B fusion protein following treatment with either pharmacological kinase inhibitors or dominant negative kinases. U20S cells were transiently transfected with CMV GFP-FoxM1B with the indicated pharmacological kinase inhibitors (B-D) or dominant-negative kinase expression vectors (E-H). Cells in panel (A) were untreated.
U2OS cells were transiently transfected in 2 well chamber slides (Nunc) with CMV GFP-FoxM1B expression constructs in the presence or absence of either CMV WT T7-p19^ARF, CMV HA-p19^ARF, or CMV expression constructs containing either N-terminal mutant T7-p19^ARF proteins (Δ1-14, Δ15-25, or Δ26-37) or V5-TAT-p19^ARF proteins (26-44; SEQ ID NO: 11, or 26-55; SEQ ID NO: 12). U2OS cells were transiently transfected with CMV EGFP expression vector containing the TAT-p19^ARF proteins (26-44; SEQ ID NO: 11, or 26-55; SEQ ID NO: 12). Forty-eight hours post transfection, cells were fixed in 4% Para-formaldehyde for 20 minutes at room temperature. GFP fluorescence or immuno-fluorescence with anti-HA antibody following TRITC conjugated secondary antibody was detected using a Zeiss microscope. U2OS cells were treated with 12 μM of the rrrrrrrrrKFVRSRRPRTASCALAFVN (SEQ ID NO: 10) peptide for 24 hours and then analyzed for TRITC fluorescence as described above.

In experiment [2] the test system is FoxM1B transcriptional activity. The experiment can be described thus: FoxM1B transcriptional activity, 6xFoxM1B TATA-luciferase reporter assay in transfected U2OS cells. Particulars: 12 μM peptide, 24 hours. Type of experiment: cell-based, human. From the text: A 6×FoxM1B/FoxA TATA-Luciferase utilized 6 copies of the FoxM1B/FoxA binding site (TTTGTTTGTTTG; SEQ ID NO: 6) from the cdx-2 promoter region driving expression of the CMV-TATA box luciferase reporter gene as described previously (Rausa et al., 2003, Mol. Cell. Biol. 23:437-449; Samadani et al., 1996, Mol. Cell. Biol. 16:6273-6284; Ye et al., 1997, Mol. Cell Biol. 17:1626-1641).
Inhibiting Cdk1 activity with either dominant negative (DN) Cdk1 or a pharmacologically active concentration of Alsterpaullone (1 μM) caused an 80% to 90% reduction in FoxM1B transcriptional activity (FIG. 6C). […] Consistent with these findings, stimulation of Cdk1 activity by co-transfection of either CMV Cdc25B or Cdc25C phosphatases enhanced FoxM1B transcriptional activity by 3.4-fold and 1.7-fold, respectfully (FIGS. 6B and 6D). […]
Human osteosarcoma U2OS cells were maintained in DMEM supplemented with 10% fetal calf serum, 1×Pen/Strep and 1×L-Glutamine (Gibco). […] Luciferase activity was determined as percent of wild type FoxM1B activity following normalization to Renilla activity. Experiments were performed at least four times in triplicate and mean±SD determined. […]
(Reporter assays use an easily measured gene product as a stand-in for the process of interest.)

The test system of experiment [3] is CMV-TETO GFP-Foxm1b U2OS clone C3 cells. The experiment can be described thus: Soft agar colony formation, Doxycycline induced GFP-FoxM1B U2OS clone C3 cells. Type of experiment: cell-based, human. Particulars: 12 μM peptide, 1 μg/ml Doxycycline, two weeks. As for the experimental part: (§1) The T-REx™-U2OS cells were purchased from Invitrogen Life Technologies (Catalog No. R712-07). The T-REx™-U2OS cells express the Tet repressor from pCEP4/tetR that was episomally maintained in tissue culture medium containing 10% fetal calf serum and drug selection with 50 μg/ml of Hygromycin B. Tetracycline regulation in the T-REx System was based on the binding of tetracycline to the TET repressor and de-repressing of the CMV-TETO promoter controlling expression of the gene of interest (Yao et al., 1998, Hum Gene Ther 9:1939-1950). The pcDNA4-TO GFP-FoxM1B expression plasmid provided in the T-REx™ system was generated as described previously (Major et al., 2004, Mol. Cell. Biol. 24:2649-2661) and transfected T-REx™-U2OS cells with linearized pcDNA4-TO GFP-Foxm1b expression plasmid to select clonal Doxycycline inducible GFP-Foxm1b U2OS cell lines. CMV-TETO GFP-FoxM1B U2OS clones were isolated by selection for three weeks with tissue culture medium containing 50 μg/ml of Hygromycin B and 250 μg/ml of Zeocin. […] Wild type U2OS cells or CMV-TETO GFP-Foxm1b U2OS clone C3 cells were grown in medium with or without 1 μg/ml of Doxycycline for 2 days prior to either adding the (D-Arg)9-p19^ARF 26-44 peptide or left untreated. […] U2OS cell colonies that were larger than 1 mm in size were scored after two weeks of growth on the soft agar.

Another experiment deals with HCC. Particulars: cited from earlier work.
For another experiment, the system named is parental U2OS cells. The experiment can be described thus: Soft agar colony formation, parental U2OS cells. Type of experiment: cell-based, human. Conditions: 12 μM peptide, two weeks. As for the experimental part:
as §1

The next experiment deals with S2 cells. Particulars: 24 hours.

Procedure for S2 cells: TUNEL assay was used to measure apoptosis in S2 cells treated with WT-blocked, mutant-blocked or WT-unblocked (D-Arg)9-p19^ARF 26-44 peptides. (D-Arg)9-p19^ARF 26-44 peptide treatment of cells was performed in 8-well chamber slides for TUNEL staining. On Day 0, 20,000 cells per well were seeded in the 8-well chamber slides. On Day 1, slides were replenished with fresh media containing one of the following concentrations of either WT-blocked, mutant-blocked or WT-unblocked (D-Arg)9-p19^ARF 26-44 peptides: 10, 15, 25, 30, 40 and 70 μM for 24 hours. On Day 2, TUNEL staining was performed following the manufacture's protocol (ApopTag® Fluorescein In Situ Apoptosis Detection Kit from CHEMICON® International, S7110). The percent of apoptosis of S2 cells (±SD) was measured by counting the number of TUNEL-positive cells (green fluorescence) per 1,000 nuclei as visualized by DAPI (blue fluorescence) counterstaining. The experiment was repeated in a second experiment using the same protocol. Statistical analysis and EC50 calculation were performed using GraphPad Prism software.

For “rrrrrrrrrSCALAFVN (SCALAFVN-NH2; not fully specified (N-terminus); printed as rrrrrrrrrSCALAFVN; UniProt Q64364 37-44, looked up, fragment) [mutant ARF peptide, reference compound]”, the “Kidney tumor mass at sacrifice” value in experiment [1] is “large tumor masses were found in the kidney”. Moreover, the “Luciferase signal from colonized lymphoma cells” value in experiment [1] (around 20 days after inoculation) is “displayed strong luciferase signals”.
As for `O=C1Cc2c([nH]c3ccc([N+](=O)[O-])cc23)-c2ccccc2N1` [Alsterpaullone], in the experiment with GFP-FoxM1B, the “Nuclear localization of transfected CMV GFP-FoxM1B protein” value is listed as “Neither DN-Cdk1 nor Alsterpaullone (1 μM) altered nuclear localization”.
For the compound “rrrrrrrrrKFVRSRRPRTASCALAFVN ([dR][dR][dR][dR][dR][dR][dR][dR][dR]KFVRSRRPRTASCALAFVN; not fully specified (N-terminus, C-terminus); printed as rrrrrrrrrKFVRSRRPRTASCALAFVN; also: end groups differ between preparations (TRITC N-term/acetyl C-term vs Ac N-term/amide C-term); listed as Mus musculus) [(D-Arg)9-p19^ARF 26-44 peptide, p19ARF 26-44 peptide containing nine D-Arg residues at the N-terminus]”, in experiment [2], the “Effect on FoxM1B transcriptional activity” value is “significant reduction in FoxM1B transcriptional activity”. For the same compound, the “FoxM1B induced colony formation on soft agar” value in experiment [3] is recorded as “significantly diminished the ability of induced GFP-FoxM1B to stimulate colony formation”. In the experiment with HCC (mouse HCC (DEN/PB induced)), the “HCC tumor size / progression” value is “effective in diminishing tumor size in HCC”. The “Metastasis of HCC cells” value in the experiment on HCC (mouse HCC cells) was “effectively prevented pulmonary metastasis of HCC cells”. For the same compound, in the experiment with parental U2OS cells, the “Colony formation on soft agar” value is “significantly diminished the ability of the parental U2OS cells to form colonies on soft agar”.
As to “rrrrrrrrrKFVRSRRPRTASCALAFVN (not fully specified (N-terminus, C-terminus); printed as rrrrrrrrrKFVRSRRPRTASCALAFVN; UniProt Q64364 26-44, looked up, fragment) [WT Unblocked]”, the “% of TUNEL Positive S2 Cells, Mean” value in the experiment with S2 cells (Experiment 1, 10 μM/Well) came to 2.46%; in the experiment on S2 cells (Experiment 1, 25 μM/Well), 1.27%; in the experiment on S2 cells (Experiment 1, 30 μM/Well), 5.59%; in the experiment with S2 cells (Experiment 1, 40 μM/Well) it was 19.94%; with S2 cells (Experiment 2, 10 μM/Well), 6.79%; in the experiment with S2 cells (Experiment 2, 15 μM/Well) it was 7.56%. Also, the “% of TUNEL Positive S2 Cells, Mean” value in the experiment with S2 cells (Experiment 2, 25 μM/Well) amounted to 11.19%; in the experiment on S2 cells (Experiment 2, 40 μM/Well), 20.51%; in the experiment with S2 cells (Experiment 2, 70 μM/Well), 30.34%. Moreover, the “Apoptosis induction compared between peptides (TUNEL)” value in the experiment with S2 cells (S2 cells, 10-70 μM) is “showed some activity compared to the mutant-blocked peptide at doses higher than 30 μM”.
